“Also recorded” adds a separate entry of the source.
How the values were obtained:
NG108-15 cells [1] = test: Uptake of mannosamine precursors and conversion to sialic acids (precursor pool, gangliosides, glycoproteins) in NG108-15 cells, HPLC; type: cell-based, mouse neuroblastoma/rat glioma hybrid; conditions: for ganglioside (lipid) sialic acid in the NeuGc form: NG108-15, 20 mM precursor (FIG. 3)
Description: (§1) Cells were harvested using hypertonic Ca^2+ - and Mg^2+ -free phosphate-buffered saline containing 1 mM EDTA, collected by centrifugation, and homogenized in ice-cold water using a Potter-Elvehjem glass/Teflon homogenizer. Methanol (2.6 volumes) was added, the suspension mixed and brought to ambient temperature, then chloroform (1.3 volumes, based on the original homogenate) was added and the suspension mixed vigorously. The suspension was centrifuged 30 min at 2,000×g. After collecting the supernatant, the pellet (containing precipitated proteins) was resuspended in water or concentrated ammonium hydroxide and a portion was used for protein assay (BCA, Pierce, Rockford, Ill.). The supernatant was partitioned by adjusting the chloroform-methanol-water ratio to 4:8:5.6 by addition of water, mixing thoroughly, and centrifuging as above. The upper phase was collected and a portion was subjected to reverse phase chromatography, using Sep-Pak C18 cartridges (Waters, Milford, Mass.), to isolate gangliosides (Schnaar, Methods Enzymol. 230:371, 1994).
(§2) To quantify and identify sialic acids, a portion of resolublized protein, organic/aqueous soluble pool, or reverse-phase purified gangliosides was evaporated to dryness in a 500-μl polypropylene tube and 20 μl of 0.1 M HCl/0.25 M NaCl was added. One Ampliwax bead (Perkin Elmer Corp, Foster City, Calif.) per reaction was added to block evaporation, and the sample hydrolyzed for 3 h at 80° C. Released sialic acids were analyzed by injecting an aliquot (1-10 μl) onto a Dionex high pressure liquid chromatography system (Dionex Corporation, Sunnyvale, Calif.) using a HPIC-AS6 column and a pulsed amperometric detector. Elution solutions were: A, 0.75 mM NaOH; B, 200 mM NaOH; and C, 400 mM sodium acetate in 50 mM NaOH. NeuAc and NeuPr were resolved by elution with 40% A, 50% B, 10% C for 15 min at 1 ml/min. NeuGc was resolved in separate injections using step gradient elution: 0-1.8 min, 18% A, 50% B, 32% C; 2-10 min, 40% B, 60% C. Sialic acids were identified by comparison of their elution time with those of standard NeuAc, NeuPr and NeuGc and were quantified in comparison to a standard curve of commercial NeuAc (for NeuAc and NeuPr) or NeuGc.
(§3) To confirm that the quantified peaks represented sialic acids, 10 μl of acid hydrolysates were treated with 1 μl of 1 M sodium phosphate (pH 7.2) and 10 μl of 0.1 M NaOH. Neutralized samples were incubated at 37° C. for 2 h with or without 0.9 U of N-acetylneuraminic acid aldolase (Sigma), 32 μM NADH and 0.1 μg lactate dehydrogenase. Sialic acid content in the ganglioside and glycoprotein fractions is expressed per mg of total cell protein. Precursor pool sialic acid (sialic acid plus CMP-sialic acid) was calculated by subtracting the ganglioside value from the organic/aqueous pool value, both expressed per mg of cell protein.
Sialic acid is biosynthesized from the precursor sugar N-acetylmannosamine (FIG. 2). In the present invention, sialic acids are converted on live neuronal cells from NeuAc, which is a key determinant for MAG binding, to NeuGc, which is non-permissive for MAG binding. A potential NeuGc precursor, N-glycolylmannosamine monoacetate (ManNGcMA, FIG. 1, R1 =H) was tested for its ability to generate altered sialic acids in neuronal and non-neuronal cells. N-propanoylmannosamine (ManNPr) and other N-acyl mannosamine derivatives have been used to modify glycoprotein associated sialic acids to the corresponding N-acylneuraminic acid. N-propanoyl-mannosamine (ManNPr), was used as a positive control. […] Cell pellets were fractioned into lipid associated, protein associated, and intracellular (lipid and cytoplasmic which may consist of oligosaccharide-bound, free, or CMP-activated sialic acid) sialic acids and hydrolyzed to release sialic acid. The hydrolyzed samples were then analyzed by HPLC to determine sialic acid content. […]

Jurkat cells = test: Uptake of mannosamine precursors and conversion to sialic acids in Jurkat cells, HPLC; type: cell-based, human; conditions: 48 h
Description: as §1, §2, §3
Sialic acid is biosynthesized from the precursor sugar N-acetylmannosamine (FIG. 2). In the present invention, sialic acids are converted on live neuronal cells from NeuAc, which is a key determinant for MAG binding, to NeuGc, which is non-permissive for MAG binding. A potential NeuGc precursor, N-glycolylmannosamine monoacetate (ManNGcMA, FIG. 1, R1 =H) was tested for its ability to generate altered sialic acids in neuronal and non-neuronal cells. N-propanoylmannosamine (ManNPr) and other N-acyl mannosamine derivatives have been used to modify glycoprotein associated sialic acids to the corresponding N-acylneuraminic acid. N-propanoyl-mannosamine (ManNPr), was used as a positive control. Jurkat human lymphoma cells and NG108-15 cells (rodent neuroblastoma/glioma hybrid cells) were incubated in 20 mM synthetic precursor or control precursor (N-acetylmannosamine, ManNAc) for 48 h, then harvested. Cell pellets were fractioned into lipid associated, protein associated, and intracellular (lipid and cytoplasmic which may consist of oligosaccharide-bound, free, or CMP-activated sialic acid) sialic acids and hydrolyzed to release sialic acid. […]

MAG-Fc chimera = test: MAG-Fc binding to precursor-treated NG108-15 cells by flow cytometry; type: cell-based
Description: Flow cytometry was used to test binding of a soluble MAG-Fc chimera to precursor-treated and control NG108-15 cells. A chimeric protein consisting of the entire extracellular domain of MAG fused via a three amino acid bridge (TGK) to the human Fc domain was produced using the "pIgPlus" vector (Novagen, Madison, Wis.). A PCR fragment coding for the extracellular domain of MAG was prepared using MAG in pCDM8 as template (Yang et al., 1996a), the T7 5' primer […] (SEQ ID NO:1) and […] (SEQ ID NO:2) as the 3' primer. The fragment was cut with BamHI and HindIII and directionally cloned into the pIgPlus vector. The resulting construct was sequenced to confirm its identity, transfected into COS cells, and the resulting MAG-Fc chimera was purified from the culture medium using Protein G affinity chromatography.
For MAG binding studies, NG108-15 cells were cultured in the presence of sialic acid precursors for the indicated times, then were released from culture dishes using hypertonic Ca^2+ /Mg^2+ -free phosphate-buffered saline (Yang et al., Proc. Natl. Acad. Sci. USA., 93:814, 1996) and resuspended (at […]) in 25 mM Hepes-buffered Hanks balanced salt solution (Bashor, Methods Enzymol., 58:119, 1979) containing 5 mg/ml bovine serum albumin. MAG-Fc (6 μg) was added to 100 μl of the same buffer containing 6 μg fluorescein isothiocyanate-labeled goat anti-human Fc (Jackson Immunoresearch, West Grove, Pa.) and incubated on ice for 1 h 45 min with frequent mixing. Cell suspension (100 μl containing 50,000 cells) was added to the premixed antibody solution and the mixture incubated on ice for 45 min. The cells were then centrifuged for 4 sec at 16,000×g and washed three times by resuspension in 200 μl of buffer with bovine serum albumin and centrifugation. The resulting cell pellet was resuspended in 100 μl buffer with bovine serum albumin and flow cytometry was performed on an Epics Profile II cytometer (Coulter Corp, Hialeah, Fla.).
NG108-15 cells, a mouse neuroblastoma/rat glioma hybrid, display many qualities of cholinergic neurons, including neurite outgrowth, synthesis, storage and release of acetylcholine, and functional synapse formation with muscle cells in vitro. Neurite outgrowth from NG108-15 cells is inhibited by MAG (McKerracher et al., Neuron, 13:805, 1994), an interaction which is reversed by pretreatment of the cells with neuraminidase (Schnaar et al., Ann. N.Y. Acad. Sci., 845:92, 1998). […] Binding was quantified by flow cytometry. […]

[2] = tested on: myelin-associated glycoprotein (MAG); conditions: cited from earlier work
NG108-15 cells [3] = test: Cell growth and viability of precursor-treated NG108-15 cells; conditions: 1 mM
Description: Cell growth rates were determined in control cultures (.box-solid.), in cultures treated with 0.08 mM (.circle-solid.), 0.25 mM (.smallcircle.), or 1 mM (.quadrature.) ManNGcPA, and in cultures treated with 0.25 mM (.tangle-solidup.) or 1 mM (Δ) glucose pentaacetate.
NG108-15 cells were maintained in Dulbecco's modified Eagle's medium (high glucose formulation) containing 5% iron-enriched calf serum, 100 μM hypoxanthine, 16 μM thymidine, and 5 μM aminopterin. […] Both cell types were cultured at 37° C. in a humidified atmosphere of 90% air/10% CO2. For treatment with sialic acid precursors, mannosamine derivatives were diluted into the appropriate medium and filter sterilized. […] In experiments testing ManNGcPA, all cells (control and experimental) were grown in the presence of 0.5% (v/v) DMSO, the carrier for ManNGcPA.

[4] = NG108-15, 20 mM precursor, 48 h

## CC(=O)N[C@@H]1C(O)O[C@H](CO)[C@@H](O)[C@@H]1O (stereo partly drawn) [ManNAc, N-acetylmannosamine, reference compound]
NG108-15 cells [1]; 20 mM precursor, 48 h
  increase in intracellular sialic acid (precursor pool): ≤ 14 fold
  increase in total glycoprotein sialic acid: ≈ 2 fold
NG108-15 cells [1]; [4]
  levels of intracellular sialic acid: high levels
Jurkat cells; 20 mM precursor
  levels of intracellular sialic acid: high levels

## CC(=O)N[C@@H]1C(OC(C)=O)O[C@H](COC(C)=O)[C@@H](OC(C)=O)[C@@H]1OC(C)=O (stereo partly drawn) [ManNAc-tetraacetate, ManNAc tetra-O-acetate, reference compound]
MAG-Fc chimera; 1 mM, 96 h
  effect on MAG-Fc binding: no significant effect on binding

## CC(=O)OC[C@H]1OC(OC(C)=O)[C@@H](NC=O)[C@@H](OC(C)=O)[C@@H]1OC(C)=O (stereo partly drawn) [ManNFr-OAc, N-formylmannosaminne peracetate]
NG108-15 cells [1]; 48 hours
  glycolipid associated sialic acid as NeuFr: 10%
NG108-15 cells [1]; FIG. 13
  levels of intracellular sialic acid in the form of NeuFr: elevated levels of intracellular sialic acid in the form of N-formyneuraminic acid

## O=C(CO)N[C@@H]1C(O)O[C@H](CO)[C@@H](O)[C@@H]1O (stereo partly drawn) [ManNGc, N-glycolylmannosamine]
NG108-15 cells [1]; 5 mM
  levels of NeuGc in any of the fractions analyzed: did not result in substantial levels of NeuGc
NG108-15 cells [1]; 5 mM in the presence of DMSO, 48 h
  levels of NeuGc (elevation): did not result in elevated levels of NeuGc
NG108-15 cells [1]; 5 mM, 48 h
  intracellular sialic acid in the form of NeuGc: 13.6%
  protein associated sialic acid as NeuGc: 9.5%
NG108-15 cells [1]; 5.0 mM, 48 h
  total lipid associated sialic acid as NeuGc: 5%
NG108-15 cells [1]; 48 h
  ganglioside (lipid) sialic acid in the NeuGc form: ~70%
NG108-15 cells [1]; NG108-15 compared with Jurkat, 48 h
  intracellular NeuGc: substantially lower levels
NG108-15 cells [1]; in MAG recognition experiment
  glycoconjugate sialic acid in the form of NeuGc: 60%
Jurkat cells
  intracellular NeuGc: expected rise in intracellular NeuGc
  lipid sialic acid in the form of NeuGc: Approximately 50%
  protein sialic acid in the form of NeuGc: Approximately 50%
MAG-Fc chimera; ng108-15 cells
  decrease in MAG-mediated recognition: 60%

## CC(=O)OCC(=O)N[C@@H]1C(O)O[C@H](CO)[C@@H](O)[C@@H]1O (stereo partly drawn) [ManNGcMA, N-Glycolylmannosamine monoacetate]
NG108-15 cells [1]; 5 mM, 48 h
  incorporation of NeuGc into gangliosides, relative to 1 mM ManNGcPA: much less
  incorporation of NeuGc into glycoproteins, relative to 1 mM ManNGcPA: much less
NG108-15 cells [1]; 20 mM precursor, 48 h
  conversion of glycoprotein sialic acids to the NeuGc form: ≈ 30%
  decrease in total glycoprotein sialic acid: ≈ 40%
  sialic acid precursor pool in the NeuGc form: ≈ 70%
  sialic acid precursor pool size compared to untreated control: markedly smaller sialic acid precursor pool
NG108-15 cells [1]; 0.1 or 1.0 mM ManNGcPA, or 5 mM ManNGcMA, 48 h
  sialic acid precursor pool size: none of these treatments significantly altered the sialic acid precursor pool size
NG108-15 cells [1]; 48 h
  ganglioside (lipid) sialic acid in the NeuGc form: ≈ 30%
NG108-15 cells [1]; [4]
  size of the ganglioside pool: remained relatively constant
Jurkat cells; 20 mM precursor
  sialic acid precursor pool as NeuGc: nearly all NeuGc
  total sialic acid precursor pool size: increase in total sialic acid precursor pool size (comparable to treatment with ManNPr)

## O=C(CO)N[C@H]1[C@H]([C@H](O)[C@H](O)CO)OC(O)(C(=O)O)C[C@@H]1O (stereo partly drawn) [NeuGc, N-glycolylneuraminic acid]
[2]
  support of MAG binding / recognition: but not N-glycolylneuraminic acid (NeuGc) support MAG binding; also recorded: does not support MAG binding

## glucose pentaacetate
NG108-15 cells [3]
  cell growth: more profound decreases in cell growth and viability than the ManNGcPA-treated cells
  cell viability (in words): more profound decreases in cell growth and viability than the ManNGcPA-treated cells

Reference: patent US6274568A, “Compounds for altering cell surface sialic acids and methods of use therefor” (priority 1999, dated 2001)
